Reference: patent US9023789B2, “Amylin analogs and pharmaceutical compositions thereof” (Novo Nordisk A/S, priority 2012, dated 2015)
Numbered stars: 1 amine (or outer) side, 2 acyl side, 3 side chain; on linkers, the order of the positions; unused ones are H or OH. Bridge positions count the residues as written; N and C are the ends. Side chains are listed from the residue outwards. Peptide text beside a SMILES is read from it. * marks the point of attachment. C20 diacid = O=C(O)CCCCCCCCCCCCCCCCCCC(=O)*; γGlu = O=C(O)[C@H](CCC(=O)[*:2])N[*:1]

What was measured:
Male Wistar rats = test: ASSAY (XII) effect from single subcutaneous administration on plasma calcium in rats; type: in vivo, rat
In short: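 Male Wistar rats (~250 g), groups of five, received a single subcutaneous dose at time 0. Blood drawn at −15 min, 1, 2, 4, 7, 12 and 24 h; total calcium measured in heparin plasma, reported as mean±SEM.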

[1] = ASSAY (IX) pK, determination of T½ in mini-pig; type: in vivo; settings: male, Göttingen, minipig, plasma, iv, 2 nmol/kg
Male Sprague-Dawley rats = test: ASSAY (XI) single subcutaneous administration, food intake monitored for 48 hours in rats; type: in vivo, rat; settings: for Food intake red (%) 0-24 h / Food intake red (%) 24-48 h: single s.c., compared to vehicle
In short: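 Male Sprague-Dawley rats from Taconic Europe, weighing about 250 g on the test day, were singly housed in an online food intake monitoring system (Ellegaard MBRose, Denmark). Before the study they were acclimatized to a reversed light cycle, with lights on from 10 PM to 10 AM. Each rat then received one subcutaneous dose of the analogue, and data are reported as mean±SEM.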

[2] = molecular target: T1, rat amylin receptor (rat calcitonin receptor + rat RAMP 3) (Rattus norvegicus, UniProt P32214+Q9JJ73); test: ASSAY (VI) binding to the rat amylin receptor; settings: for IC50: binding to rat amylin receptor, read-out: rAmylin-R bind IC50
T1 construct: expressed in transfected cells; host or cells: BHK tk'ts 13 (transient, FuGENE 6), membranes
T1 sequence (P32214 25-479 isoform P32214-2 limits assumed): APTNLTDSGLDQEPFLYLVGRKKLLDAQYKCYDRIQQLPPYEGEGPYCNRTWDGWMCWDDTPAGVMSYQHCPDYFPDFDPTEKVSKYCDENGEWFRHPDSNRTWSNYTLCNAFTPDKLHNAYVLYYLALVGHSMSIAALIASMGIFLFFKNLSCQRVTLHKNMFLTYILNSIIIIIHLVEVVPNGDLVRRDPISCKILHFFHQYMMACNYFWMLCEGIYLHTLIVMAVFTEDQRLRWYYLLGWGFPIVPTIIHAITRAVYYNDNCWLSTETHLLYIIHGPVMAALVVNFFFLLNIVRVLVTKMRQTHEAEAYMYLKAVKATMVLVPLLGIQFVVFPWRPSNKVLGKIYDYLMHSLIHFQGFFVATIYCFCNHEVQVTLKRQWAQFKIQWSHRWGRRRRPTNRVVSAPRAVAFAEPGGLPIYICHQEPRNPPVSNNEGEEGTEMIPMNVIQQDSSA
T1 sequence (Q9JJ73 23-147 partner): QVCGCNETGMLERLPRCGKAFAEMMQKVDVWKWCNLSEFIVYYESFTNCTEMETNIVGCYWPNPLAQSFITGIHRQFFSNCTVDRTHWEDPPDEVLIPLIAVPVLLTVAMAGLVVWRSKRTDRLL
In short: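 This assay measured binding to the rat amylin receptor. BHK tk′ts 13 cells were transiently transfected with the rat calcitonin receptor using FuGENE® 6 (Roche), following the manufacturer's recommendations. About 48 hours after transfection, the cells were harvested and membranes were prepared from them for the binding determination.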

[3] = ASSAY (X) pK, determination of T½ in rat; type: in vivo; settings: male, Sprague Dawley, plasma, iv, 20 nmol/kg
[4] = molecular target: T2, human calcitonin receptor (Homo sapiens, UniProt P30988); test: ASSAY (VII) binding to the human calcitonin receptor (SPA, 125I-Calcitonin); settings: read-out: hCTR bind IC50;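 also: cell membranes (35 ng/µL) combined with SPA beads in 40 µL of pH 7.4 Hepes buffer, 384-well format, signal counted on a TopCounter instrument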
T2 construct: expressed in transfected cells
T2 sequence (P30988 25-474): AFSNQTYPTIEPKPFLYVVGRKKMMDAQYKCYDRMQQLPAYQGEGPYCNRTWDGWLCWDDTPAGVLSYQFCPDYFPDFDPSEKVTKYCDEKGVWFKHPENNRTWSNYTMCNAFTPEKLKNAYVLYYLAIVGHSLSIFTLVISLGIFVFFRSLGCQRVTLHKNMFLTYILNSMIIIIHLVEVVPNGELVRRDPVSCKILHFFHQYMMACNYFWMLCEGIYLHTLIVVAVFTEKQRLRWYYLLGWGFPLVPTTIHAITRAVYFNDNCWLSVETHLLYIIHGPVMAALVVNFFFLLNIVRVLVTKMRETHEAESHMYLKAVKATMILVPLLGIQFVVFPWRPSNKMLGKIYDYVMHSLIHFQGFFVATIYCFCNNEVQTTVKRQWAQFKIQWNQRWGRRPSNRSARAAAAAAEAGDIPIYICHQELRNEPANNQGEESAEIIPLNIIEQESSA

[5] = molecular target: T3, human calcitonin (a) receptor in BHK570 cells (Homo sapiens, UniProt P30988); test: ASSAY (II)a functional assay, human calcitonin receptor (CRE luciferase); type: cell-based; settings: read-out: hCTR funct. EC50
T3 construct: expressed in transfected cells
T3 sequence (P30988 25-474): T2 sequence (P30988 25-474)
In short: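 BHK CRE-luc cells, calcitonin (a) receptor ± RAMP-3 (amylin 3(a)); overnight seeding, 37° C/5% CO2. 3 h ligand exposure, DMEM/10% FBS/10 mM Hepes pH 7.4. LucLite 30 min RT; luminescence (SPC).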

[6] = Table 7, rat binding selectivity, rCTR IC50 / rAmylin-R IC50
[7] = Table 7a (preferred compounds), rat binding selectivity, rCTR IC50 / rAmylin-R IC50
[8] = ratio of rCTR bind IC50 to rAmylin-R bind IC50

CC[C@H](C)[C@H](NC(=O)[C@H](C)NC(=O)CNC(=O)[C@H](Cc1ccccc1)NC(=O)[C@H](CC(N)=O)NC(=O)[C@@H]1CCCN1C(=O)[C@H](CO)NC(=O)[C@H](CO)NC(=O)[C@H](Cc1c[nH]cn1)NC(=O)[C@H](CCCNC(=N)N)NC(=O)[C@H](CC(C)C)NC(=O)[C@H](Cc1ccccc1)NC(=O)[C@H](CC(=O)O)NC(=O)[C@H](C)NC(=O)[C@H](CC(C)C)NC(=O)[C@H](CCCNC(=N)N)NC(=O)[C@H](CCC(N)=O)NC(=O)[C@@H](NC(=O)[C@H](C)NC(=O)[C@@H]1CSSC[C@H](NC(=O)[C@@H](N)CCCCNC(=O)CC[C@H](NC(=O)CC[C@H](NC(=O)CCCCCCCCCCCCCCCCCCC(=O)O)C(=O)O)C(=O)O)C(=O)N[C@@H](CC(N)=O)C(=O)N[C@@H]([C@@H](C)O)C(=O)N[C@@H](C)C(=O)N[C@@H]([C@@H](C)O)C(=O)N1)[C@@H](C)O)C(=O)N1CCC[C@H]1C(=O)N[C@@H](CO)C(=O)N[C@@H](CO)C(=O)N[C@H](C(=O)N[C@@H](CC(N)=O)C(=O)N[C@H](C(=O)NCC(=O)N[C@@H](CO)C(=O)N[C@@H](CCCNC(=N)N)C(=O)N[C@H](C(=O)N[C@@H](Cc1ccc(O)cc1)C(N)=O)[C@@H](C)O)C(C)C)[C@@H](C)O [Example 52, N-ε-1-{(S)-4-carboxy-4-[(S)-4-carboxy-4-(19-carboxynonadecanoylamino)butyrylamino]butyryl}-[Asp14,Arg17,Pro21,Pro27,Arg35]-human amylin]
Plasma calcium red (%) 0-12 h (maximal) (Male Wistar rats; single s.c., 30 nmol/kg, 0-12 h, compared to vehicle): 12% | suppression of plasma calcium level relative to vehicle (Male Wistar rats; single subcutaneous administration, increasing doses (all doses tested), monitored over 24 hours): None of the doses trigger a notable suppression of the calcium level | half-life [1]: 99.5 h | Food intake red (%) 0-24 h (Male Sprague-Dawley rats; 3 nmol/kg): 25% | Food intake red (%) 24-48 h (Male Sprague-Dawley rats; 3 nmol/kg): 15% | Food intake red (%) 0-24 h (Male Sprague-Dawley rats; 30 nmol/kg): 63% | Food intake red (%) 24-48 h (Male Sprague-Dawley rats; 30 nmol/kg): 50% | food intake monitored over 48 hours (Male Sprague-Dawley rats; single subcutaneous administration, 30 nmol/kg, versus vehicle): reduces food intake | IC50 ([2]; Table 7): 0.335 nM | Ratio rCT/rAmylin binding [2, 6]: 476.7 | Ratio rCT/rAmylin binding [2, 7]: 476.7 | Ratio rCT/rAmylin binding [2, 8]: 476.7 | half-life [3]: 21 h

CC[C@H](C)[C@H](NC(=O)[C@H](C)NC(=O)CNC(=O)[C@H](Cc1ccccc1)NC(=O)[C@H](CC(N)=O)NC(=O)[C@@H]1CCCN1C(=O)[C@H](CO)NC(=O)[C@H](CO)NC(=O)[C@H](Cc1c[nH]cn1)NC(=O)[C@H](CCCNC(=N)N)NC(=O)[C@H](CC(C)C)NC(=O)[C@H](Cc1ccccc1)NC(=O)[C@H](CC(N)=O)NC(=O)[C@H](C)NC(=O)[C@H](CC(C)C)NC(=O)[C@H](CCCNC(=N)N)NC(=O)[C@H](CCC(N)=O)NC(=O)[C@@H](NC(=O)[C@H](C)NC(=O)[C@@H]1CSSC[C@H](NC(=O)[C@@H](N)CCCCNC(=O)CC[C@H](NC(=O)CCCCCCCCCCCCCCCCCCC(=O)O)C(=O)O)C(=O)N[C@@H](CC(N)=O)C(=O)N[C@@H]([C@@H](C)O)C(=O)N[C@@H](C)C(=O)N[C@@H]([C@@H](C)O)C(=O)N1)[C@@H](C)O)C(=O)N1CCC[C@H]1C(=O)N[C@@H](CO)C(=O)N[C@@H](CO)C(=O)N[C@H](C(=O)N[C@@H](CC(N)=O)C(=O)N[C@H](C(=O)NCC(=O)N[C@@H](Cc1c[nH]cn1)C(=O)N[C@@H](CC(N)=O)C(=O)N[C@H](C(=O)N[C@@H](Cc1ccc(O)cc1)C(N)=O)[C@@H](C)O)C(C)C)[C@@H](C)O [Example 77]
half-life [1]: 81 h | IC50 ([2]; Table 7): 1.5 nM | Ratio rCT/rAmylin binding [2, 6]: 136.8 | Ratio rCT/rAmylin binding [2, 7]: 136.8 | Ratio rCT/rAmylin binding [2, 8]: 136.8 | half-life [3]: 18 h

CC[C@H](C)[C@H](NC(=O)[C@H](C)NC(=O)CNC(=O)[C@H](Cc1ccccc1)NC(=O)[C@H](CC(N)=O)NC(=O)[C@@H]1CCCN1C(=O)[C@H](CO)NC(=O)[C@H](CO)NC(=O)[C@H](Cc1c[nH]cn1)NC(=O)[C@H](CCCNC(=N)N)NC(=O)[C@H](CC(C)C)NC(=O)[C@H](Cc1ccccc1)NC(=O)[C@H](Cc1c[nH]cn1)NC(=O)[C@H](C)NC(=O)[C@H](CC(C)C)NC(=O)[C@H](CCCNC(=N)N)NC(=O)[C@H](CCC(N)=O)NC(=O)[C@@H](NC(=O)[C@H](C)NC(=O)[C@@H]1CSSC[C@H](NC(=O)[C@@H](N)CCCCNC(=O)CC[C@H](NC(=O)CCCCCCCCCCCCCCCCCCC(=O)O)C(=O)O)C(=O)N[C@@H](CC(N)=O)C(=O)N[C@@H]([C@@H](C)O)C(=O)N[C@@H](C)C(=O)N[C@@H]([C@@H](C)O)C(=O)N1)[C@@H](C)O)C(=O)N1CCC[C@H]1C(=O)N[C@@H](CO)C(=O)N[C@@H](CO)C(=O)N[C@H](C(=O)N[C@@H](CC(N)=O)C(=O)N[C@H](C(=O)NCC(=O)N[C@@H](CCCNC(=N)N)C(=O)N[C@@H](CC(N)=O)C(=O)N[C@H](C(=O)N[C@@H](Cc1ccc(O)cc1)C(N)=O)[C@@H](C)O)C(C)C)[C@@H](C)O [Example 85] (H-K([γGlu-C20 diacid])CNTATCATQRLAHFLRHSSPNFGAIPSSTNVGRNTY-NH2; disulfide 2-7 (inferred); N-terminus assumed)
IC50 [4]: 80.4 nM | EC50 [5]: 3.88 nM | half-life [1]: 85 h | IC50 ([2]; Table 7): 3.14 nM | Ratio rCT/rAmylin binding [2, 6]: 46.5 | Ratio rCT/rAmylin binding [2, 7]: 46.5 | Ratio rCT/rAmylin binding [2, 8]: 46.5
